Reference: patent US20240174637A1, “DEGRADERS OF GRK2 AND USES THEREOF” (Sonata Therapeutics, Inc., priority 2021, published 2024)

How the values were obtained:
GRK2 [1] = biological target: T1, GRK2 (Homo sapiens, UniProt P25098); experiment: Second ADPGlo GRK2 Inhibition Assay (Example 3); format: biochemical; details: ADP-Glo, 20 μM ATP; read-out: Second ADPGlo Enzymatic GRK2 Assay: IC50 (nM) (Example 3)
T1 sequence (P25098 1-689): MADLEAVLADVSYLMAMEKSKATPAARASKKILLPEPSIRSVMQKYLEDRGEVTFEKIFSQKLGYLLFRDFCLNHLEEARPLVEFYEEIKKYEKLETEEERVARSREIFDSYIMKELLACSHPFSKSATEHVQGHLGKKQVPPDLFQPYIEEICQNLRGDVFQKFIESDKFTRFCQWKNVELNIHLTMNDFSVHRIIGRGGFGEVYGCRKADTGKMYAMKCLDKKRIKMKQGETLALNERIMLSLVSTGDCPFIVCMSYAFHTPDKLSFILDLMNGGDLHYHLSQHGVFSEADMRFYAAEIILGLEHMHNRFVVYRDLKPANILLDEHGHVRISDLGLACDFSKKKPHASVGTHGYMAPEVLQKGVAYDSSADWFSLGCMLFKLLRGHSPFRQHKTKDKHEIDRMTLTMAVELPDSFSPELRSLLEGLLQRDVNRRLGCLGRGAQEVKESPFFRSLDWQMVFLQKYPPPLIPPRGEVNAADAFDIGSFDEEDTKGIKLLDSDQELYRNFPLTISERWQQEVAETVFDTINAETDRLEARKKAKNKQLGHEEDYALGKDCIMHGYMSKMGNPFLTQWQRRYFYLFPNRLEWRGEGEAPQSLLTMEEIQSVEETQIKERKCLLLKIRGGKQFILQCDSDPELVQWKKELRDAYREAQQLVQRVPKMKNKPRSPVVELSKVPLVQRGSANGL
In short: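 GRK2 (2 nM) reacted with 20 μM ATP and GRKtide 1.2 mg/mL in pH 7.5 HEPES/MgCl2 buffer, 180 min at room temperature; compounds in 10-point 3.16-fold series, top final 1 μM. ADP formed detected by ADP-Glo luminescence; % inhibition against no-compound and no-enzyme controls.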

GRK2 [2] = biological target: T1, GRK2; experiment: GRK2 Degradation Assay and Western Blot in PAXF1657 cells; format: cell-based; set-up: endogenous in cells; host or cells: PAXF1657; details: PAXF1657 EV, 24 hrs; for inhibition at 1 µM: read-out: % GRK2 degradation at 1 uM in PAXF1657 EV (24 hrs)
In short: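 GRK2 degradation judged by immunoblot: NP40 lysates separated by SDS-PAGE and probed for GRK2 and β-actin, with HRP/ECL detection. Lysates came from PAXF1657 cells exposed to 0–10 μM compound for 6–24 h after reaching 70% confluency.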

| IC50 (GRK2 [1]) [nM] | inhibition at 1 µM (GRK2 [2]) [%] | % GRK2 degradation at 10 uM in PAXF1657 EV (24 hrs) (GRK2 [2]) [%] | SMILES |
| --- | --- | --- | --- |
| < 100 | 18 | 10 | Cc1ncsc1-c1ccc(CNC(=O)[C@@H]2C[C@@H](O)CN2C(=O)[C@@H](NC(=O)COCCOCCCCCCOc2cccc(CNC(=O)c3cccc(NCc4nnc(-c5ccncn5)n4C)c3)c2)C(C)(C)C)cc1 [Compound D101] |
| < 100 | 22 | 39 | Cc1ncsc1-c1ccc(CNC(=O)[C@@H]2C[C@@H](O)CN2C(=O)[C@@H](NC(=O)COCCOCCOCCOCCOCCOCCCCCCOc2cccc(CNC(=O)c3cccc(NCc4nnc(-c5ccncn5)n4C)c3)c2)C(C)(C)C)cc1 [Compound D100] |
